From patent US10597388B2, “Pyridazinone herbicides” (FMC CORPORATION, priority 2014, dated 2020)

What was measured:
Assay type in all cases: in vivo
[1] = system: nutsedge, yellow (yellow nutsedge, Cyperus esculentus); experiment: Test E greenhouse herbicide test, pre- and postemergence; settings: Preemergence
Procedure, shortened: (§1)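 Scores (0–100, visual, vs controls) reflect greenhouse growth of 14 to 21 d after treatment. Application was pre-emergence to silt loam or post-emergence at the 1- to 4-leaf stage.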

[2] = system: panicum, fall (fall panicum, Panicum dichotomiflorum); experiment: as above
Procedure, shortened: as §1

[3] = system: johnsongrass (Sorghum halepense); experiment: as above; settings: Preemergence
Procedure, shortened: as §1

corn (Zea mays) = experiment: as above
Procedure, shortened: as §1

[4] = system: velvetleaf (Abutilon theophrasti); experiment: as above; settings: Preemergence
Procedure, shortened: as §1

[5] = system: dayflower (Virginia (VA) dayflower, Commelina virginica); experiment: as above
Procedure, shortened: as §1

[6] = system: foxtail, green (green foxtail, Setaria viridis); experiment: as above; settings: Preemergence
Procedure, shortened: as §1

[7] = system: foxtail, giant (giant foxtail, Setaria faberii); experiment: as above; settings: Preemergence
Procedure, shortened: as §1

[8] = system: crabgrass, Brazilian (Brazilian crabgrass, Digitaria horizontalis); experiment: as above
Procedure, shortened: as §1

[9] = system: pigweed, palmer (palmer pigweed, Amaranthus palmeri); experiment: as above
Procedure, shortened: as §1

[10] = system: lambsquarters (Chenopodium album); experiment: as above; settings: Preemergence
Procedure, shortened: as §1

soybean (Glycine max) = experiment: as above
Procedure, shortened: as §1

[11] = system: sandbur (southem sandbur, Cenchrus echinatus); experiment: as above
Procedure, shortened: as §1

kochia (Kochia scoparia) = experiment: as above
Procedure, shortened: as §1

[12] = system: crabgrass, large (large crabgrass, Digitaria sanguinalis); experiment: as above; settings: Preemergence
Procedure, shortened: as §1

[13] = system: waterhemp_RES1 (ALS & Triazine resistant common waterhemp, Amaranthus rudis); experiment: Test E greenhouse herbicide test, postemergence
Procedure, shortened: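 Seedlings were raised in pots of peat moss and vermiculite medium with starter nutrients until they reached the 1- to 4-leaf stage. They were then treated postemergence and held in a greenhouse for 14–21 d. Finally, response was scored visually on a 0–100 control scale.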

[14] = 62 g ai/ha, scale 0 to 100 (0 no effect, 100 complete control)
[15] = 125 g ai/ha, scale 0 to 100 (0 no effect, 100 complete control)
[16] = 16 g ai/ha, scale 0 to 100, 0 no effect, 100 complete control
[17] = 31 g ai/ha, scale 0 to 100, 0 no effect, 100 complete control
[18] = 62 g ai/ha, Postemergence, scale 0 to 100 (0 no effect, 100 complete control)
[19] = 62 g ai/ha, Preemergence, scale 0 to 100 (0 no effect, 100 complete control)
[20] = 125 g ai/ha, Postemergence, scale 0 to 100 (0 no effect, 100 complete control)
[21] = 125 g ai/ha, Preemergence, scale 0 to 100 (0 no effect, 100 complete control)
[22] = Postemergence, 16 g ai/ha, visual, scale 0 no effect to 100 complete control
[23] = Postemergence, 31 g ai/ha, visual, scale 0 no effect to 100 complete control
[24] = Preemergence, 16 g ai/ha, scale 0 to 100, 0 no effect, 100 complete control
[25] = Preemergence, 31 g ai/ha, scale 0 to 100, 0 no effect, 100 complete control

Cc1ccc2sc(C)c(-c3c(OC(=O)OC(C)C)c(C)nn(C)c3=O)c2c1 [Compound 66]
Plant response rating, Nutsedge, Yellow [1, 14]: 65 | Plant response rating, Nutsedge, Yellow [1, 15]: 50 | Plant response rating, Nutsedge, Yellow [1, 16]: 0 | Plant response rating, Nutsedge, Yellow [1, 17]: 5 | Plant response rating, Panicum, Fall [2, 18]: 70 | Plant response rating, Panicum, Fall [2, 19]: 95 | Plant response rating, Panicum, Fall [2, 20]: 80 | Plant response rating, Panicum, Fall [2, 21]: 98 | Plant response rating, Panicum, Fall [2, 22]: 30 | Plant response rating, Panicum, Fall [2, 23]: 70 | Plant response rating, Panicum, Fall [2, 24]: 10 | Plant response rating, Panicum, Fall [2, 25]: 60 | Plant response rating, Johnsongrass [3, 14]: 0 | Plant response rating, Johnsongrass [3, 15]: 0 | Plant response rating, Johnsongrass [3, 16]: 0 | Plant response rating, Johnsongrass [3, 17]: 0 | Plant response rating, Corn (corn (Zea mays); [18]): 10 | Plant response rating, Corn (corn (Zea mays); [19]): 0 | Plant response rating, Corn (corn (Zea mays); [20]): 15 | Plant response rating, Corn (corn (Zea mays); [21]): 20 | Plant response rating, Corn (corn (Zea mays); [22]): 0 | Plant response rating, Corn (corn (Zea mays); [23]): 0 | Plant response rating, Corn (corn (Zea mays); [24]): 0 | Plant response rating, Corn (corn (Zea mays); [25]): 0 | Plant response rating, Velvetleaf [4, 14]: 20 | Plant response rating, Velvetleaf [4, 15]: 80 | Plant response rating, Velvetleaf [4, 16]: 0 | Plant response rating, Velvetleaf [4, 17]: 0 | Plant response rating, Dayflower, VA [5, 18]: 60 | Plant response rating, Dayflower, VA [5, 19]: 0 | Plant response rating, Dayflower, VA [5, 20]: 50 | Plant response rating, Dayflower, VA [5, 21]: 20 | Plant response rating, Dayflower, VA [5, 22]: 0 | Plant response rating, Dayflower, VA [5, 23]: 25 | Plant response rating, Dayflower, VA [5, 24]: 0 | Plant response rating, Dayflower, VA [5, 25]: 0 | Plant response rating, Foxtail, Green [6, 14]: 35 | Plant response rating, Foxtail, Green [6, 15]: 70 | Plant response rating, Foxtail, Green [6, 16]: 0 | Plant response rating, Foxtail, Green [6, 17]: 0 | Plant response rating, Foxtail, Giant [7, 14]: 40 | Plant response rating, Foxtail, Giant [7, 15]: 90 | Plant response rating, Foxtail, Giant [7, 16]: 0 | Plant response rating, Foxtail, Giant [7, 17]: 5 | Plant response rating, Crabgrass, Brazil [8, 18]: 30 | Plant response rating, Crabgrass, Brazil [8, 19]: 25 | Plant response rating, Crabgrass, Brazil [8, 20]: 40 | Plant response rating, Crabgrass, Brazil [8, 21]: 65 | Plant response rating, Crabgrass, Brazil [8, 22]: 10 | Plant response rating, Crabgrass, Brazil [8, 23]: 20 | Plant response rating, Crabgrass, Brazil [8, 24]: 0 | Plant response rating, Crabgrass, Brazil [8, 25]: 25 | Plant response rating, Pigweed, Palmer [9, 18]: 60 | Plant response rating, Pigweed, Palmer [9, 19]: 65 | Plant response rating, Pigweed, Palmer [9, 20]: 80 | Plant response rating, Pigweed, Palmer [9, 21]: 100 | Plant response rating, Pigweed, Palmer [9, 22]: 50 | Plant response rating, Pigweed, Palmer [9, 23]: 70 | Plant response rating, Pigweed, Palmer [9, 24]: 0 | Plant response rating, Pigweed, Palmer [9, 25]: 0 | Plant response rating, Lambsquarters [10, 14]: 100 | Plant response rating, Lambsquarters [10, 15]: 100 | Plant response rating, Lambsquarters [10, 16]: 5 | Plant response rating, Lambsquarters [10, 17]: 90 | Plant response rating, Soybean (soybean (Glycine max); [18]): 20 | Plant response rating, Soybean (soybean (Glycine max); [19]): 0 | Plant response rating, Soybean (soybean (Glycine max); [20]): 20 | Plant response rating, Soybean (soybean (Glycine max); [21]): 0 | Plant response rating, Soybean (soybean (Glycine max); [22]): 0 | Plant response rating, Soybean (soybean (Glycine max); [23]): 0 | Plant response rating, Soybean (soybean (Glycine max); [24]): 0 | Plant response rating, Soybean (soybean (Glycine max); [25]): 0 | Plant response rating, Sandbur [11, 18]: 50 | Plant response rating, Sandbur [11, 19]: 10 | Plant response rating, Sandbur [11, 20]: 60 | Plant response rating, Sandbur [11, 21]: 70 | Plant response rating, Sandbur [11, 22]: 25 | Plant response rating, Sandbur [11, 23]: 40 | Plant response rating, Sandbur [11, 24]: 0 | Plant response rating, Sandbur [11, 25]: 0 | Plant response rating, Kochia (kochia (Kochia scoparia); [18]): 90 | Plant response rating, Kochia (kochia (Kochia scoparia); [19]): 60 | Plant response rating, Kochia (kochia (Kochia scoparia); [20]): 95 | Plant response rating, Kochia (kochia (Kochia scoparia); [21]): 90 | Plant response rating, Kochia (kochia (Kochia scoparia); [22]): 90 | Plant response rating, Kochia (kochia (Kochia scoparia); [23]): 95 | Plant response rating, Kochia (kochia (Kochia scoparia); [24]): 0 | Plant response rating, Kochia (kochia (Kochia scoparia); [25]): 0 | Plant response rating, Crabgrass, Large [12, 14]: 0 | Plant response rating, Crabgrass, Large [12, 15]: 15 | Plant response rating, Crabgrass, Large [12, 16]: 0 | Plant response rating, Crabgrass, Large [12, 17]: 0 | Plant response rating, Waterhemp_RES1 ([13]; 16 g ai/ha, visual, scale 0 no effect to 100 complete control): 70 | Plant response rating, Waterhemp_RES1 ([13]; 31 g ai/ha, visual, scale 0 no effect to 100 complete control): 80 | Plant response rating, Waterhemp_RES1 [13, 14]: 75 | Plant response rating, Waterhemp_RES1 [13, 15]: 80
